Results on 15 compounds are retold here after patent US12071430B2 (The Johns Hopkins University, priority 2011, dated 2024).

The test system of one data set is HUVEC. The experiment in a line: HUVEC proliferation, [3H]-thymidine incorporation assay. The data set is classed as cell-based, human. Particulars: for Proliferation (IC50/IC50 Itra): HUVEC IC50 relative to itraconazole; for IC50: [3H]-thymidine incorporation, unit inferred, values in μM, read-out: Proliferation IC50. The procedure: The inhibitory effects of the new analogs on HUVEC proliferation were measured using a [3H]-thymidine incorporation assay. The log P values, used as an indicator of lipophilicity, were calculated using ALOGPS2.1 software. Aqueous solubility is a key physiochemical property relevant for oral absorption. We determined the solubility of each analog in 0.001 N HCl (pH=3), which represents the acidic human gastric fluid.
HUVEC Culture and Proliferation Assays. HUVEC (Lonza) were grown in EGM-2 bullet kit media (Lonza) and used at passage eight or lower. The H thymidine incorporation assays were conducted as previously described. Briefly, cells were seeded on 96-well plate at a concentration of 2000 cells/well and allowed to settle overnight. Drugs were added to each well in triplicate. After 24 hours, cells were treated with 1 μCi of [3H] thymidine for 6 h. Then cells were harvested and transferred to filtermats. The scintillation were counted and IC50 were determined using Prism software (version 6.0).
On the technique in general: Uptake of a labelled nucleoside into DNA is a usual measure of proliferation.

A further data set concerns the target T1, CYP3A4 (Homo sapiens, UniProt P08684).
T1 construct: purchased ThermoFisher P2857; host or cells: baculosomes (insect-cell microsomes, own knowledge)
The data set is described as follows: CYP3A4 enzyme assay (Vivid CYP3A4 Green Screening Kit). The class given is in vitro ADME. As to conditions: for CYP3A4 Inhibition (compared to intracozanole at 1 um): % enzyme inhibition at 1 uM drug / % enzyme inhibition at 1 uM itraconazole; for CYP3A4 inhibition, in words: dose response or compared with itraconazole; for CYP3A4 inhibition at 1 μM, in words: initial screening at 1 μM. How it is done:
And CYP3A4 inhibition was initially determined using a cell-free fluorescence-based assay at a final concentration of 1 μM (Table 2).
CYP3A4 enzyme assay. CYP3A4 enzyme activity was tested using Vivid™ CYP3A4 Green Screening Kit (ThermoFisher, #P2857) using the manufacturer's protocol. Briefly, CYP3A4 baculosomes and drugs were incubated 10 min at 37° C. Then Vivid® Substrates were added and the fluorescence (ex/em:485/520) were read every 1 min for 60 minute.

“Also recorded” adds a separate entry of the source. Where two headings read alike, the source gives them in different places.

T1 sequence (P08684 whole entry): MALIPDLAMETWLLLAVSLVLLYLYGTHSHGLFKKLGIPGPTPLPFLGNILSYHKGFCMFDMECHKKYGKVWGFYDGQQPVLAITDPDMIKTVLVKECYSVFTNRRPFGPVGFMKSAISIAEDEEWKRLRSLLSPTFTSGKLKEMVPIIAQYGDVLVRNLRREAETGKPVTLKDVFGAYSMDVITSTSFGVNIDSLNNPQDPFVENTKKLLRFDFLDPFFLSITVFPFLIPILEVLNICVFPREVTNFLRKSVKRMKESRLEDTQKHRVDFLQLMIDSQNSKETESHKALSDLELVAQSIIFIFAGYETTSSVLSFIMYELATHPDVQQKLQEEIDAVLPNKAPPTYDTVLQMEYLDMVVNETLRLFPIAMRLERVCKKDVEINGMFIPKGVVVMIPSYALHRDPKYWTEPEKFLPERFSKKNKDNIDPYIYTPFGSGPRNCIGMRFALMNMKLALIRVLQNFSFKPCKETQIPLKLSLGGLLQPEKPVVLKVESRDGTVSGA

For `CCC(C)n1ncn(-c2ccc(N3CCN(c4ccc(OC[C@@H]5CO[C@@](Cn6ccnc6)(c6ccc(Cl)cc6Cl)O5)cc4)CC3)cc2)c1=O` (stereo partly drawn) [Compound 33, 4-(4-(4-(4-(((2S,4R)-2-((1H-imidazol-1-yl)methyl)-2-(2,4-dichlorophenyl)-1,3-dioxolan-4-yl)methoxy)phenyl)piperazin-1-yl)phenyl)-1-sec-butyl-1H-1,2,4-triazol-5(4H)-one], the “HUVEC proliferation / anti-angiogenic potency compared to itraconazole, in words” value with HUVEC (HUVEC) is “higher potency”. Besides, the “Proliferation (IC50/IC50 Itra)” value in the data set with HUVEC worked out at 0.5. On CYP3A4, the “CYP3A4 Inhibition (compared to intracozanole at 1 um)” value amounted to 1.18.

As for `CCC(C)n1ncn(-c2ccc(N3CCN(c4ccc(OC[C@@H]5CO[C@@](Cn6cccn6)(c6ccc(Cl)cc6Cl)O5)cc4)CC3)cc2)c1=O` (stereo partly drawn) [Compound 34, 4-(4-(4-(4-(((2S,4R)-2-((1H-pyrazol-1-yl)methyl)-2-(2,4-dichlorophenyl)-1,3-dioxolan-4-yl)methoxy)phenyl)piperazin-1-yl)phenyl)-1-sec-butyl-1H-1,2,4-triazol-5(4H)-one], the “Proliferation (IC50/IC50 Itra)” value with HUVEC is 1.8. Further, the “CYP3A4 Inhibition (compared to intracozanole at 1 um)” value on CYP3A4 was “No inhibition”.

Turning to `CCC(C)n1ncn(-c2ccc(N3CCN(c4ccc(OC[C@@H]5CO[C@@](Cn6ccnc6C)(c6ccc(Cl)cc6Cl)O5)cc4)CC3)cc2)c1=O` (stereo partly drawn) [Compound 35, 1-sec-butyl-4-(4-(4-(4-(((2S,4R)-2-(2,4-dichlorophenyl)-2-((2-methyl-1H-imidazol-1-yl)methyl)-1,3-dioxolan-4-yl)methoxy)phenyl)piperazin-1-yl)phenyl)-1H-1,2,4-triazol-5(4H)-one], in the data set on HUVEC, the “Proliferation (IC50/IC50 Itra)” value is 1.0. The “CYP3A4 Inhibition (compared to intracozanole at 1 um)” value at CYP3A4 turned out to be 0.85.

On to `CCC(C)n1ncn(-c2ccc(N3CCN(c4ccc(OC[C@@H]5CO[C@@](Cn6cnc(C)c6)(c6ccc(Cl)cc6Cl)O5)cc4)CC3)cc2)c1=O` (stereo partly drawn) [Compound 38, 1-sec-butyl-4-(4-(4-(4-(((2S,4R)-2-(2,4-dichlorophenyl)-2-((4-methyl-1H-imidazol-1-yl)methyl)-1,3-dioxolan-4-yl)methoxy)phenyl)piperazin-1-yl)phenyl)-1H-1,2,4-triazol-5(4H)-one], for which the “Proliferation (IC50/IC50 Itra)” value in the data set on HUVEC is 0.6. Also, on CYP3A4, the “CYP3A4 Inhibition (compared to intracozanole at 1 um)” value is recorded as 1.18.

For the compound `CCC(C)n1ncn(-c2ccc(N3CCN(c4ccc(OC[C@@H]5CO[C@@](Cn6cc(C(F)(F)F)nc6C)(c6ccc(Cl)cc6Cl)O5)cc4)CC3)cc2)c1=O` (stereo partly drawn) [Compound 39, 1-(sec-butyl)-4-(4-(4-(4-(((2S,4R)-2-(2,4-dichlorophenyl)-2-((2-methyl-4-(trifluoromethyl)-1H-imidazol-1-yl)methyl)-1,3-dioxolan-4-yl)methoxy)phenyl)piperazin-1-yl)phenyl)-1H-1,2,4-triazol-5(4H)-one], the “Proliferation (IC50/IC50 Itra)” value with HUVEC is given as 2.8. At CYP3A4, the “CYP3A4 Inhibition (compared to intracozanole at 1 um)” value was “No inhibition”; the “CYP3A4 inhibition, in words” value is on record as “eliminated CYP3A4 inhibition”; the “CYP3A4 inhibition at 1 μM, in words” value is “eliminated”.

In the case of `CCC(C)n1ncn(-c2ccc(N3CCN(c4ccc(OC[C@@H]5CO[C@@](Cn6cc(C)nc6C)(c6ccc(Cl)cc6Cl)O5)cc4)CC3)cc2)c1=O` (stereo partly drawn) [Compound 40, 1-(sec-butyl)-4-(4-(4-(4-(((2S,4R)-2-(2,4-dichlorophenyl)-2-((2,4-dimethyl-1H-imidazol-1-yl)methyl)-1,3-dioxolan-4-yl)methoxy)phenyl)piperazin-1-yl)phenyl)-1H-1,2,4-triazol-5(4H)-one], the “Proliferation (IC50/IC50 Itra)” value in the data set on HUVEC turned out to be 3.1. The “CYP3A4 Inhibition (compared to intracozanole at 1 um)” value on CYP3A4 was determined as 0.45.

For `CCC(C)n1ncn(-c2ccc(N3CCN(c4ccc(OC[C@@H]5CO[C@@](Cn6c(C)cnc6C)(c6ccc(Cl)cc6Cl)O5)cc4)CC3)cc2)c1=O` (stereo partly drawn) [Compound 41, 1-(sec-butyl)-4-(4-(4-(4-(((2S,4R)-2-(2,4-dichlorophenyl)-2-((2,5-dimethyl-1H-imidazol-1-yl)methyl)-1,3-dioxolan-4-yl)methoxy)phenyl)piperazin-1-yl)phenyl)-1H-1,2,4-triazol-5(4H)-one], the “Proliferation (IC50/IC50 Itra)” value in the data set on HUVEC was 4.5. In the data set with HUVEC (Homo sapiens, HUVEC), the IC50 was determined as 0.765 µM. The “CYP3A4 Inhibition (compared to intracozanole at 1 um)” value on CYP3A4 came out at 0.27.

`CCc1nccn1C[C@@]1(c2ccc(Cl)cc2Cl)OC[C@@H](COc2ccc(N3CCN(c4ccc(-n5cnn(C(C)CC)c5=O)cc4)CC3)cc2)O1` (stereo partly drawn) [Compound 43, 1-(sec-butyl)-4-(4-(4-(4-(((2S,4R)-2-(2,4-dichlorophenyl)-2-((2-ethyl-1H-imidazol-1-yl)methyl)-1,3-dioxolan-4-yl)methoxy)phenyl)piperazin-1-yl)phenyl)-1H-1,2,4-triazol-5(4H)-one]: the “Proliferation (IC50/IC50 Itra)” value in the data set on HUVEC was determined as 1.4. The “CYP3A4 Inhibition (compared to intracozanole at 1 um)” value on CYP3A4 worked out at 0.08.

On to `CCC(C)n1ncn(-c2ccc(N3CCN(c4ccc(OC[C@@H]5CO[C@@](Cn6ccnc6C(C)C)(c6ccc(Cl)cc6Cl)O5)cc4)CC3)cc2)c1=O` (stereo partly drawn) [Compound 45, 1-sec-butyl-4-(4-(4-(4-(((2S,4R)-2-(2,4-dichlorophenyl)-2-((2-isopropyl-1H-imidazol-1-yl)methyl)-1,3-dioxolan-4-yl)methoxy)phenyl)piperazin-1-yl)phenyl)-1H-1,2,4-triazol-5(4H)-one], for which the “Proliferation (IC50/IC50 Itra)” value in the data set on HUVEC was 0.5. In addition, the IC50 in the data set on HUVEC (Homo sapiens, HUVEC) is 0.084 µM. Moreover, the “CYP3A4 Inhibition (compared to intracozanole at 1 um)” value at CYP3A4 came to 0.07.

`CCC(C)n1ncn(-c2ccc(N3CCN(c4ccc(OC[C@@H]5CO[C@@](Cn6ccnc6-c6ccccc6)(c6ccc(Cl)cc6Cl)O5)cc4)CC3)cc2)c1=O` (stereo partly drawn) [Compound 46, 1-sec-butyl-4-(4-(4-(4-(((2S,4R)-2-(2,4-dichlorophenyl)-2-((2-phenyl-1H-imidazol-1-yl)methyl)-1,3-dioxolan-4-yl)methoxy)phenyl)piperazin-1-yl)phenyl)-1H-1,2,4-triazol-5(4H)-one]: the “Proliferation (IC50/IC50 Itra)” value with HUVEC amounted to 0.8. The “CYP3A4 Inhibition (compared to intracozanole at 1 um)” value at CYP3A4 was 0.27.

Take `CCC(C)n1ncn(-c2ccc(N3CCN(c4ccc(OC[C@@H]5CO[C@@](Cn6nc(C)nc6C)(c6ccc(Cl)cc6Cl)O5)cc4)CC3)cc2)c1=O` (stereo partly drawn) [Compound 47, 1-sec-butyl-4-(4-(4-(4-(((2S,4R)-2-(2,4-dichlorophenyl)-2-((3,5-dimethyl-1H-1,2,4-triazol-1-yl)methyl)-1,3-dioxolan-4-yl)methoxy)phenyl)piperazin-1-yl)phenyl)-1H-1,2,4-triazol-5(4H)-one]: the “Proliferation (IC50/IC50 Itra)” value in the data set with HUVEC turned out to be 1.3. Besides, the IC50 with HUVEC (HUVEC) turned out to be 0.221 µM. Moreover, the IC50 with HUVEC (Homo sapiens, HUVEC) stood at 0.22 µM. On CYP3A4, the “CYP3A4 Inhibition (compared to intracozanole at 1 um)” value came out at 0.32; the “CYP3A4 inhibition, in words” value was “weak inhibition”; the “CYP3A4 inhibition at 1 μM, in words” value was “no CYP3A4 inhibition”.

For `CCC(C)n1ncn(-c2ccc(N3CCN(c4ccc(OC[C@@H]5CO[C@@](Cn6ncnn6)(c6ccc(Cl)cc6Cl)O5)cc4)CC3)cc2)c1=O` (stereo partly drawn) [Compound 49, 4-(4-(4-(4-(((2S,4R)-2-((2H-tetrazol-2-yl)methyl)-2-(2,4-dichlorophenyl)-1,3-dioxolan-4-yl)methoxy)phenyl)piperazin-1-yl)phenyl)-1-sec-butyl-1H-1,2,4-triazol-5(4H)-one], in the data set on HUVEC, the “Proliferation (IC50/IC50 Itra)” value stood at 0.7. For the same compound, the IC50 in the data set with HUVEC (Homo sapiens, HUVEC) was 0.124 µM. Moreover, on CYP3A4, the “CYP3A4 Inhibition (compared to intracozanole at 1 um)” value came to 0.2.

On to `CCC(C)n1ncn(-c2ccc(N3CCN(c4ccc(OC[C@@H]5CO[C@@](Cn6cnc(C)n6)(c6ccc(Cl)cc6Cl)O5)cc4)CC3)cc2)c1=O` (stereo partly drawn) [Compound 50, 1-sec-butyl-4-(4-(4-(4-(((2S,4R)-2-(2,4-dichlorophenyl)-2-((3-methyl-1H-1,2,4-triazol-1-yl)methyl)-1,3-dioxolan-4-yl)methoxy)phenyl)piperazin-1-yl)phenyl)-1H-1,2,4-triazol-5(4H)-one], for which the “Proliferation (IC50/IC50 Itra)” value in the data set on HUVEC stood at 1.6. Besides, at CYP3A4, the “CYP3A4 Inhibition (compared to intracozanole at 1 um)” value is given as 0.36 and the “CYP3A4 inhibition, in words” value is “reduced potency”.

In the case of `CCC(C)n1ncn(-c2ccc(N3CCN(c4ccc(OC[C@@H]5CO[C@@](Cn6cnc(C(F)(F)F)n6)(c6ccc(Cl)cc6Cl)O5)cc4)CC3)cc2)c1=O` (stereo partly drawn) [Compound 51, 1-sec-butyl-4-(4-(4-(4-(((2S,4R)-2-(2,4-dichlorophenyl)-2-((3-(trifluoromethyl)-1H-1,2,4-triazol-1-yl)methyl)-1,3-dioxolan-4-yl)methoxy)phenyl)piperazin-1-yl)phenyl)-1H-1,2,4-triazol-5(4H)-one], in the data set with HUVEC, the “Proliferation (IC50/IC50 Itra)” value is listed as 1.6. In addition, at CYP3A4, the “CYP3A4 Inhibition (compared to intracozanole at 1 um)” value is recorded as “No inhibition” and the “CYP3A4 inhibition, in words” value was “reduced potency; also recorded: eliminated CYP3A4 inhibition”.

Regarding `CCC(C)n1ncn(-c2ccc(N3CCN(c4ccc(OC[C@@H]5CO[C@@](Cn6nnnc6C)(c6ccc(Cl)cc6Cl)O5)cc4)CC3)cc2)c1=O` (stereo partly drawn) [Compound 52, 1-sec-butyl-4-(4-(4-(4-(((2S,4R)-2-(2,4-dichlorophenyl)-2-((5-methyl-1H-tetrazol-1-yl)methyl)-1,3-dioxolan-4-yl)methoxy)phenyl)piperazin-1-yl)phenyl)-1H-1,2,4-triazol-5(4H)-one], the “Proliferation (IC50/IC50 Itra)” value in the data set with HUVEC turned out to be 0.6. For the same compound, the “CYP3A4 Inhibition (compared to intracozanole at 1 um)” value on CYP3A4 was found to be 0.08.
